Experimental data reported in patent publication US9023789B2, “Amylin analogs and pharmaceutical compositions thereof” (Novo Nordisk A/S, priority 2012, dated 2015).
≈ marks a conversion by molar mass, not a printed value. Like-named read-outs stand apart in the source and are kept apart here. Numbered stars: 1 amine (or outer) side, 2 acyl side, 3 side chain; on linkers, the order of the positions; unused ones are H or OH. Bridge positions count the residues as written; N and C are the ends. Side chains are listed from the residue outwards. Peptide text beside a SMILES is read from it. * marks the point of attachment. C20 diacid = O=C(O)CCCCCCCCCCCCCCCCCCC(=O)*; γGlu = O=C(O)[C@H](CCC(=O)[*:2])N[*:1]

Key:
[1] = target: T1, human calcitonin (a) receptor in BHK570 cells (Homo sapiens, UniProt P30988); test: ASSAY (II)a functional assay, human calcitonin receptor (CRE luciferase); type: cell-based; details: read-out: hCTR funct. EC50
T1 construct: expressed in transfected cells
T1 sequence (P30988 25-474): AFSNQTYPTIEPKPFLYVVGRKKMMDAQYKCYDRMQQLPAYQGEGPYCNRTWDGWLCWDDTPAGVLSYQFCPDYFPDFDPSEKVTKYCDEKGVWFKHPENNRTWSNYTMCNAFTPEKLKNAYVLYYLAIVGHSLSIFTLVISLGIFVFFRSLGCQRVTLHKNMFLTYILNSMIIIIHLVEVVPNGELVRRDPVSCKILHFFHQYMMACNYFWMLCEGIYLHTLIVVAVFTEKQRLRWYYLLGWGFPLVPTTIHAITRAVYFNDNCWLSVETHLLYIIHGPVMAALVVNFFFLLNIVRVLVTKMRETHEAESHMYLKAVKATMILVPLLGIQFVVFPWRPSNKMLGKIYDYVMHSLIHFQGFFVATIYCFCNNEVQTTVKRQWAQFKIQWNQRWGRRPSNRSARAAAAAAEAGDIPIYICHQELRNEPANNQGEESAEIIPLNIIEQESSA
Outline: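 BHK CRE-luc cells, calcitonin (a) receptor ± RAMP-3 (amylin 3(a)); overnight seeding, 37° C/5% CO2. 3 h ligand exposure, DMEM/10% FBS/10 mM Hepes pH 7.4. LucLite 30 min RT; luminescence (SPC).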

[2] = ASSAY (IV) determination of solubility; type: physicochemical
Outline: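 Polypeptide stock in water ([…]) was mixed 1:1 with 100 mM buffers: glycylglycine at pH 3.0, 4.0, 5.0 and bistrispropane at pH 6.0, 6.5, 7.0, 7.5, 8.0. After 18 hours at room temperature, samples were centrifuged and polypeptide concentration measured by UPLC.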

[3] = target: T2, human amylin receptor (membranes from Amylin 3(a)/CRE-luc cells) (Homo sapiens, UniProt O60896+P30988); test: ASSAY (V) binding to the human amylin receptor (SPA, 125I-rat amylin); details: for IC50: Table 4, read-out: hAmylin-R bind IC50;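 for all read-outs here: competition binding of cell membranes (35 ng/µL) mixed with SPA beads in 384-well plates at 40 µL total volume, read by scintillation counting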
T2 construct: expressed in transfected cells
T2 sequence (P30988 25-474): T1 sequence (P30988 25-474)
T2 sequence (O60896 24-148 partner): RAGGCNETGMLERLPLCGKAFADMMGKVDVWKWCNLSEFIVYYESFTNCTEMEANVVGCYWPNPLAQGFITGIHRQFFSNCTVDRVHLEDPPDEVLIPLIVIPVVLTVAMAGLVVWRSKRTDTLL

[4] = target: T3, rat amylin receptor (rat calcitonin receptor + rat RAMP 3) (Rattus norvegicus, UniProt P32214+Q9JJ73); test: ASSAY (VI) binding to the rat amylin receptor; details: for IC50: binding to rat amylin receptor, read-out: rAmylin-R bind IC50
T3 construct: expressed in transfected cells; host or cells: BHK tk'ts 13 (transient, FuGENE 6), membranes
T3 sequence (P32214 25-479 isoform P32214-2 limits assumed): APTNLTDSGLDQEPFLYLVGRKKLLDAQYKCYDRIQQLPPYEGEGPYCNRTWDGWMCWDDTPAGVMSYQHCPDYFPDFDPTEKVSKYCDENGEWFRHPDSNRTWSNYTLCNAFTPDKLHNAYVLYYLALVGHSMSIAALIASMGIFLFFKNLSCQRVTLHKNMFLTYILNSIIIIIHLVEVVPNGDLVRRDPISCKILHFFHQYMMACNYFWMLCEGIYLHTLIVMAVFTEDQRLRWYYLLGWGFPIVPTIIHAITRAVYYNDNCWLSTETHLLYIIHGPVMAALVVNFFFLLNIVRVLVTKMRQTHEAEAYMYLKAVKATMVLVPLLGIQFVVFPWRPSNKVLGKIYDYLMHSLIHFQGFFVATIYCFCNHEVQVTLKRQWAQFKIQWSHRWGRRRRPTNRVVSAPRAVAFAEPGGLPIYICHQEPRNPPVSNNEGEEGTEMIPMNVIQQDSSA
T3 sequence (Q9JJ73 23-147 partner): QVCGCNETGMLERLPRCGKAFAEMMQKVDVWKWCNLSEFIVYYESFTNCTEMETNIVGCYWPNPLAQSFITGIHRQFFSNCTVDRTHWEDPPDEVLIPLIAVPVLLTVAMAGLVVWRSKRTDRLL
Outline: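 This assay measured binding to the rat amylin receptor. BHK tk′ts 13 cells were transiently transfected with the rat calcitonin receptor using FuGENE® 6 (Roche), following the manufacturer's recommendations. About 48 hours after transfection, the cells were harvested and membranes were prepared from them for the binding determination.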

[5] = target: T4, human calcitonin receptor (Homo sapiens, UniProt P30988); test: ASSAY (VII) binding to the human calcitonin receptor (SPA, 125I-Calcitonin); details: read-out: hCTR bind IC50;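 note: cell membranes (35 ng/µL) combined with SPA beads in 40 µL of pH 7.4 Hepes buffer, 384-well format, signal counted on a TopCounter instrument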
T4 construct: expressed in transfected cells
T4 sequence (P30988 25-474): T1 sequence (P30988 25-474)

rat calcitonin receptor = target: T5, rat calcitonin receptor (Rattus norvegicus, UniProt P32214); test: ASSAY (VIII) binding to the rat calcitonin receptor; details: Table 7, read-out: rCTR bind IC50
T5 construct: expressed in transfected cells; host or cells: BHK tk'ts 13 (transient, FuGENE 6), membranes
T5 sequence (P32214 25-479 isoform P32214-2 limits assumed): T3 sequence (P32214 25-479 isoform P32214-2 limits assumed)
Outline: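 Transfect BHK tk′ts 13 cells transiently with rat calcitonin receptor, culture in DMEM containing 10% FBS, collect cells about 48 hours later, then prepare membranes.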

[6] = bistrispropane buffer, pH 6.5, read-out: Solubility pH 6.5 Concentration
[7] = bistrispropane buffer, pH 7.5, read-out: Solubility pH 7.5 Concentration
[8] = bistrispropane buffer, pH 6.0, read-out: Solubility pH 6.0 Concentration
[9] = bistrispropane buffer, pH 7.0, read-out: Solubility pH 7.0 Concentration
[10] = bistrispropane buffer, pH 8.0, read-out: Solubility pH 8.0 Concentration
[11] = glycylglycine buffer, pH 3.0, read-out: Solubility pH 3.0 Concentration
[12] = glycylglycine buffer, pH 4.0, read-out: Solubility pH 4.0 Concentration
[13] = glycylglycine buffer, pH 5.0, read-out: Solubility pH 5.0 Concentration
[14] = Table 5, selectivity, hCTR bind IC50 / hAmylin-R bind IC50
[15] = Table 5a, selectivity, hCTR bind IC50 / hAmylin-R bind IC50
[16] = Table 5b, selectivity, hCTR bind IC50 / hAmylin-R bind IC50
[17] = Table 5c, selectivity, hCTR bind IC50 / hAmylin-R bind IC50
[18] = Table 7, human binding selectivity, included for comparison
[19] = Table 7a (preferred compounds), human binding selectivity, included for comparison
[20] = ratio of human calcitonin receptor binding IC50 to human amylin receptor binding IC50
[21] = Table 7, rat binding selectivity, rCTR IC50 / rAmylin-R IC50
[22] = Table 7a (preferred compounds), rat binding selectivity, rCTR IC50 / rAmylin-R IC50
[23] = ratio of rCTR bind IC50 to rAmylin-R bind IC50

Row | EC50 [1] [nM] | solubility at 18 h [2, 6] [µM] | solubility at 18 h [2, 7] [µM] | solubility at 18 h [2, 8] [µM] | solubility at 18 h [2, 9] [µM] | solubility at 18 h [2, 10] [µM] | solubility at 18 h [2, 11] [µM] | solubility at 18 h [2, 12] [µM] | solubility at 18 h [2, 13] [µM] | IC50 [3] [nM] | Ratio hCT/hAmylin binding [3, 14] | Ratio hCT/hAmylin binding [3, 15] | Ratio hCT/hAmylin binding [3, 16] | Ratio hCT/hAmylin binding [3, 17] | Ratio hCT/hAmylin binding [3, 18] | Ratio hCT/hAmylin binding [3, 19] | Ratio hCT/hAmylin binding [3, 20] | IC50 ([4]; Table 7) [nM] | Ratio rCT/rAmylin binding [4, 21] | Ratio rCT/rAmylin binding [4, 22] | SMILES | other results
1 | 0.887 | ≥ 200 | ≥ 200 | ≥ 200 | ≥ 200 | ≥ 200 | ≥ 200 | ≥ 200 | ≥ 200 | 0.076 | 45.3 | 45.3 | 45.3 | 45.3 | 45.3 | 45.3 | 45.3 | 0.161 | 867.7 | 867.7 | CC[C@H](C)[C@H](NC(=O)[C@H](C)NC(=O)CNC(=O)[C@H](Cc1ccccc1)NC(=O)[C@H](CC(N)=O)NC(=O)[C@@H]1CCCN1C(=O)[C@H](CO)NC(=O)[C@H](CO)NC(=O)[C@H](Cc1c[nH]cn1)NC(=O)[C@H](CCCNC(=N)N)NC(=O)[C@H](CC(C)C)NC(=O)[C@H](Cc1ccccc1)NC(=O)[C@H](CO)NC(=O)[C@H](C)NC(=O)[C@H](CC(C)C)NC(=O)[C@H](CCCNC(=N)N)NC(=O)[C@H](CCC(N)=O)NC(=O)[C@@H](NC(=O)[C@H](C)NC(=O)[C@@H]1CSSC[C@H](NC(=O)[C@@H](N)CCCCNC(=O)CC[C@H](NC(=O)CC[C@H](NC(=O)CCCCCCCCCCCCCCCCCCC(=O)O)C(=O)O)C(=O)O)C(=O)N[C@@H](CC(N)=O)C(=O)N[C@@H]([C@@H](C)O)C(=O)N[C@@H](C)C(=O)N[C@@H]([C@@H](C)O)C(=O)N1)[C@@H](C)O)C(=O)N1CCC[C@H]1C(=O)N[C@@H](CO)C(=O)N[C@@H](CO)C(=O)N[C@H](C(=O)N[C@@H](CC(N)=O)C(=O)N[C@H](C(=O)NCC(=O)N1CCC[C@H]1C(=O)N[C@@H](CCC(=O)O)C(=O)N[C@H](C(=O)N[C@@H](Cc1ccc(O)cc1)C(N)=O)[C@@H](C)O)C(C)C)[C@@H](C)O [Example 120] (H-K([γGlu-γGlu-C20 diacid])CNTATCATQRLASFLRHSSPNFGAIPSSTNVGPETY-NH2; disulfide 2-7 (inferred); N-terminus assumed) | Ratio rCT/rAmylin binding [4, 23]: 867.7; IC50 [5]: 3.44 nM; IC50 (rat calcitonin receptor): 140 nM
2 | 9.33 | ≥ 200 | ≥ 200 | ≥ 200 | ≥ 200 | ≥ 200 | ≥ 200 | ≥ 200 | ≥ 200 | 0.649 | 82.4 | 82.4 | 82.4 | 82.4 | 82.4 | 82.4 | 82.4 | 1.16 | 93.2 | 93.2 | CC[C@H](C)[C@H](NC(=O)[C@H](C)NC(=O)CNC(=O)[C@H](Cc1ccccc1)NC(=O)[C@H](CC(N)=O)NC(=O)[C@@H]1CCCN1C(=O)[C@H](CO)NC(=O)[C@H](CO)NC(=O)[C@H](Cc1c[nH]cn1)NC(=O)[C@H](CCCNC(=N)N)NC(=O)[C@H](CC(C)C)NC(=O)[C@H](Cc1ccccc1)NC(=O)[C@H](CCCNC(=N)N)NC(=O)[C@H](C)NC(=O)[C@H](CC(C)C)NC(=O)[C@H](CCCNC(=N)N)NC(=O)[C@H](CCC(N)=O)NC(=O)[C@@H](NC(=O)[C@H](C)NC(=O)[C@@H]1CSSC[C@H](NC(=O)[C@@H](N)CCCCNC(=O)CC[C@H](NC(=O)CCCCCCCCCCCCCCCCCCC(=O)O)C(=O)O)C(=O)N[C@@H](CC(N)=O)C(=O)N[C@@H]([C@@H](C)O)C(=O)N[C@@H](C)C(=O)N[C@@H]([C@@H](C)O)C(=O)N1)[C@@H](C)O)C(=O)N1CCC[C@H]1C(=O)N[C@@H](CO)C(=O)N[C@@H](CO)C(=O)N[C@H](C(=O)N[C@@H](CC(N)=O)C(=O)N[C@H](C(=O)NCC(=O)N1CCC[C@H]1C(=O)N[C@@H](CC(N)=O)C(=O)N[C@H](C(=O)N[C@@H](Cc1ccc(O)cc1)C(N)=O)[C@@H](C)O)C(C)C)[C@@H](C)O [Example 65] (H-K([γGlu-C20 diacid])CNTATCATQRLARFLRHSSPNFGAIPSSTNVGPNTY-NH2; disulfide 2-7 (inferred); N-terminus assumed) | Ratio rCT/rAmylin binding [4, 23]: 93.2; IC50 [5]: 53.5 nM; IC50 (rat calcitonin receptor): 108 nM
3 | 11.2 | ≥ 200 | 162 (≈ 738 µg/mL) | ≥ 200 | 172 (≈ 786 µg/mL) | 149 (≈ 681 µg/mL) | ≥ 200 | ≥ 200 | ≥ 200 | 1.16 | 28.0 | 28.0 | 28.0 | 28.0 | 28.0 | 28.0 | 28.0 | 2.37 | 48.8 | 48.8 | CC[C@H](C)[C@H](NC(=O)[C@H](C)NC(=O)CNC(=O)[C@H](Cc1ccccc1)NC(=O)[C@H](CC(N)=O)NC(=O)[C@@H]1CCCN1C(=O)[C@H](CO)NC(=O)[C@H](CO)NC(=O)[C@H](Cc1c[nH]cn1)NC(=O)[C@H](CCCNC(=N)N)NC(=O)[C@H](CC(C)C)NC(=O)[C@H](Cc1ccccc1)NC(=O)[C@H](CCC(=O)O)NC(=O)[C@H](C)NC(=O)[C@H](CC(C)C)NC(=O)[C@H](CCCNC(=N)N)NC(=O)[C@H](CCC(N)=O)NC(=O)[C@@H](NC(=O)[C@H](C)NC(=O)[C@@H]1CSSC[C@H](NC(=O)[C@@H](N)CCCCNC(=O)CC[C@H](NC(=O)CC[C@H](NC(=O)CCCCCCCCCCCCCCCCCCC(=O)O)C(=O)O)C(=O)O)C(=O)N[C@@H](CC(N)=O)C(=O)N[C@@H]([C@@H](C)O)C(=O)N[C@@H](C)C(=O)N[C@@H]([C@@H](C)O)C(=O)N1)[C@@H](C)O)C(=O)N1CCC[C@H]1C(=O)N[C@@H](CO)C(=O)N[C@@H](CO)C(=O)N[C@H](C(=O)N[C@@H](CC(N)=O)C(=O)N[C@H](C(=O)NCC(=O)N[C@@H](CO)C(=O)N[C@@H](CCCNC(=N)N)C(=O)N[C@H](C(=O)N[C@@H](Cc1ccc(O)cc1)C(N)=O)[C@@H](C)O)C(C)C)[C@@H](C)O [Example 89] (H-K([γGlu-γGlu-C20 diacid])CNTATCATQRLAEFLRHSSPNFGAIPSSTNVGSRTY-NH2; disulfide 2-7 (inferred); N-terminus assumed) | Ratio rCT/rAmylin binding [4, 23]: 48.8; IC50 [5]: 32.5 nM; IC50 (rat calcitonin receptor): 115 nM
